Assays:
Assay type in all cases: in vivo
[1] = test system: green foxtail (Setaria viridis, SETVI); assay: Post-emerge test, greenhouse herbicide activity screening; conditions: phytotoxicity rating 0-100 (0 no damage, 100 complete death), 14 days after application
How it was run: (§1)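 Rating: 0–100 visual injury, 14 DAA. Application: acetone, 187 l/ha, 15–1000 g ai/ha, flat-fan track sprayer with nozzle 40–45 cm above soil or canopy. Post-emerge runs used 0.25% v/v surfactant on 2–3 leaf plants.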

[2] = test system: velvetleaf (Abutilon theophrasti, ABUTH); assay: as above; conditions: phytotoxicity rating 0-100 (0 no damage, 100 complete death), 14 days after application
How it was run: as §1

[3] = test system: lambsquarters (Chenopodium album, CHEAL); assay: as above; conditions: phytotoxicity rating 0-100 (0 no damage, 100 complete death), 14 days after application
How it was run: as §1

[4] = test system: large crabgrass (Digitaria sanguinalis, DIGSA); assay: as above; conditions: phytotoxicity rating 0-100 (0 no damage, 100 complete death), 14 days after application
How it was run: as §1

[5] = test system: sicklepod (Cassia obtusifolia, CASOB); assay: as above; conditions: phytotoxicity rating 0-100 (0 no damage, 100 complete death), 14 days after application
How it was run: as §1

[6] = test system: barnyardgrass (Echinochloa crus-galli, ECHCG); assay: as above; conditions: phytotoxicity rating 0-100 (0 no damage, 100 complete death), 14 days after application
How it was run: as §1

[7] = test system: redroot pigweed (Amaranthus retroflexus, AMARE); assay: as above; conditions: phytotoxicity rating 0-100 (0 no damage, 100 complete death), 14 days after application
How it was run: as §1

[8] = test system: johnsongrass (Sorghum halepense, SORHA); assay: as above; conditions: phytotoxicity rating 0-100 (0 no damage, 100 complete death), 14 days after application
How it was run: as §1

[9] = test system: ivyleaf morningglory (Ipomoea hederacea, IPOHE); assay: as above; conditions: phytotoxicity rating 0-100 (0 no damage, 100 complete death), 14 days after application
How it was run: as §1

[10] = test system: upland rice (Oryza sp., var. Tebonnet, RICE); assay: Pre-emerge test, crop safety; conditions: pre-emerge, rated 14 days after application, 0 = no damage, 100 = complete death
How it was run: as §1

[11] = test system: field corn (Zea mays L., var. Dekalb 535, CORN); assay: Pre-emerge test, crop safety; conditions: pre-emerge, rated 14 days after application, 0 = no damage, 100 = complete death
How it was run: as §1

[12] = test system: green foxtail (Setaria viridis, SETVI); assay: Pre-emerge test, greenhouse herbicide activity screening; conditions: pre-emerge, rated 14 days after application, 0 = no damage, 100 = complete death
How it was run: (§2)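 Compounds in acetone were track-sprayed at 15-1000 g ai/ha (187 l/ha) on sandy loam pots: pre-emerge one day after seeding, post-emerge at 2-3 leaf stage with 0.25% v/v non-ionic surfactant. Phytotoxicity was rated 14 days later on a 0 (no damage) to 100 (complete death) scale.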

[13] = test system: velvetleaf (Abutilon theophrasti, ABUTH); assay: as above; conditions: pre-emerge, rated 14 days after application, 0 = no damage, 100 = complete death
How it was run: as §2

[14] = test system: lambsquarters (Chenopodium album, CHEAL); assay: as above; conditions: pre-emerge, rated 14 days after application, 0 = no damage, 100 = complete death
How it was run: as §2

[15] = test system: large crabgrass (Digitaria sanguinalis, DIGSA); assay: as above; conditions: pre-emerge, rated 14 days after application, 0 = no damage, 100 = complete death
How it was run: as §2

[16] = test system: sicklepod (Cassia obtusifolia, CASOB); assay: as above; conditions: pre-emerge, rated 14 days after application, 0 = no damage, 100 = complete death
How it was run: as §2

[17] = test system: barnyardgrass (Echinochloa crus-galli, ECHCG); assay: as above; conditions: pre-emerge, rated 14 days after application, 0 = no damage, 100 = complete death
How it was run: as §2

[18] = test system: johnsongrass (Sorghum halepense, SORHA); assay: as above; conditions: pre-emerge, rated 14 days after application, 0 = no damage, 100 = complete death
How it was run: as §2

[19] = test system: ivyleaf morningglory (Ipomoea hederacea, IPOHE); assay: as above; conditions: pre-emerge, rated 14 days after application, 0 = no damage, 100 = complete death
How it was run: as §2

[20] = test system: redroot pigweed (Amaranthus retroflexus, AMARE); assay: as above; conditions: pre-emerge, rated 14 days after application, 0 = no damage, 100 = complete death
How it was run: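 Plants grown in 10 cm pots of sandy loam mix received acetone-dissolved compounds through a moving flat-fan nozzle. Doses ranged from 15 to 1000 g ai/ha. Pre-emerge pots were seeded one day earlier, post-emerge pots 8–21 days earlier. Fourteen days on, each pot was graded 0–100 for damage.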

[21] = test system: upland rice (Oryza sp., var. Tebonnet, RICE); assay: Post-emerge test, crop safety; conditions: phytotoxicity rating 0-100 (0 no damage, 100 complete death), 14 days after application
How it was run: as §2

[22] = test system: field corn (Zea mays L., var. Dekalb 535, CORN); assay: Post-emerge test, crop safety; conditions: phytotoxicity rating 0-100 (0 no damage, 100 complete death), 14 days after application
How it was run: as §2

C=C(C)C(=O)N(C(=O)C(=C)C)c1c(OC)c(Cl)cc(F)c1-n1c(=O)cc(C(F)(F)F)n(C)c1=O [2-6]
Post-emerge Herbicidal Activity SETVI ([1]; 63 g ai/ha): 0
Post-emerge Herbicidal Activity SETVI ([1]; 250 g ai/ha): 0
Post-emerge Herbicidal Activity ABUTH ([2]; 63 g ai/ha): 0
Post-emerge Herbicidal Activity ABUTH ([2]; 250 g ai/ha): 70
Post-emerge Herbicidal Activity CHEAL ([3]; 63 g ai/ha): 0
Post-emerge Herbicidal Activity CHEAL ([3]; 250 g ai/ha): 30
Post-emerge Herbicidal Activity DIGSA ([4]; 63 g ai/ha): 0
Post-emerge Herbicidal Activity DIGSA ([4]; 250 g ai/ha): 0
Post-emerge Herbicidal Activity CASOB ([5]; 63 g ai/ha): 0
Post-emerge Herbicidal Activity CASOB ([5]; 250 g ai/ha): 0
Post-emerge Herbicidal Activity ECHCG ([6]; 63 g ai/ha): 0
Post-emerge Herbicidal Activity ECHCG ([6]; 250 g ai/ha): 0
Post-emerge Herbicidal Activity AMARE ([7]; 63 g ai/ha): 0
Post-emerge Herbicidal Activity AMARE ([7]; 250 g ai/ha): 10
Post-emerge Herbicidal Activity SORHA ([8]; 63 g ai/ha): 0
Post-emerge Herbicidal Activity SORHA ([8]; 250 g ai/ha): 0
Post-emerge Herbicidal Activity IPOHE ([9]; 63 g ai/ha): 0
Post-emerge Herbicidal Activity IPOHE ([9]; 250 g ai/ha): 30
Pre-emerge crop damage RICE (phytotoxicity rating, scale 0-100) ([10]; 63 g ai/ha): 0
Pre-emerge crop damage RICE (phytotoxicity rating, scale 0-100) ([10]; 250 g ai/ha): 0
Pre-emerge crop damage CORN (phytotoxicity rating, scale 0-100) ([11]; 63 g ai/ha): 0
Pre-emerge crop damage CORN (phytotoxicity rating, scale 0-100) ([11]; 250 g ai/ha): 0
Pre-emerge Herbicidal Activity SETVI (phytotoxicity rating, scale 0-100) ([12]; 63 g ai/ha): 0
Pre-emerge Herbicidal Activity SETVI (phytotoxicity rating, scale 0-100) ([12]; 250 g ai/ha): 80
Pre-emerge Herbicidal Activity ABUTH (phytotoxicity rating, scale 0-100) ([13]; 63 g ai/ha): 0
Pre-emerge Herbicidal Activity ABUTH (phytotoxicity rating, scale 0-100) ([13]; 250 g ai/ha): 0
Pre-emerge Herbicidal Activity CHEAL (phytotoxicity rating, scale 0-100) ([14]; 63 g ai/ha): 0
Pre-emerge Herbicidal Activity CHEAL (phytotoxicity rating, scale 0-100) ([14]; 250 g ai/ha): 0
Pre-emerge Herbicidal Activity DIGSA (phytotoxicity rating, scale 0-100) ([15]; 63 g ai/ha): 0
Pre-emerge Herbicidal Activity DIGSA (phytotoxicity rating, scale 0-100) ([15]; 250 g ai/ha): 10
Pre-emerge Herbicidal Activity CASOB (phytotoxicity rating, scale 0-100) ([16]; 63 g ai/ha): 0
Pre-emerge Herbicidal Activity CASOB (phytotoxicity rating, scale 0-100) ([16]; 250 g ai/ha): 0
Pre-emerge Herbicidal Activity ECHCG (phytotoxicity rating, scale 0-100) ([17]; 63 g ai/ha): 0
Pre-emerge Herbicidal Activity ECHCG (phytotoxicity rating, scale 0-100) ([17]; 250 g ai/ha): 0
Pre-emerge Herbicidal Activity SORHA (phytotoxicity rating, scale 0-100) ([18]; 63 g ai/ha): 0
Pre-emerge Herbicidal Activity SORHA (phytotoxicity rating, scale 0-100) ([18]; 250 g ai/ha): 20
Pre-emerge Herbicidal Activity IPOHE (phytotoxicity rating, scale 0-100) ([19]; 63 g ai/ha): 0
Pre-emerge Herbicidal Activity IPOHE (phytotoxicity rating, scale 0-100) ([19]; 250 g ai/ha): 0
Pre-emerge Herbicidal Activity AMARE (phytotoxicity rating, scale 0-100) ([20]; 63 g ai/ha): 0
Pre-emerge Herbicidal Activity AMARE (phytotoxicity rating, scale 0-100) ([20]; 250 g ai/ha): 50
Post-emerge Herbicidal Activity RICE (crop damage) ([21]; 63 g ai/ha): 0
Post-emerge Herbicidal Activity RICE (crop damage) ([21]; 250 g ai/ha): 0
Post-emerge Herbicidal Activity CORN (crop damage) ([22]; 63 g ai/ha): 0
Post-emerge Herbicidal Activity CORN (crop damage) ([22]; 250 g ai/ha): 5
